Assay [1] is described as follows: Protection from acute cerebral hypoxia (survival time of mice in 3.5 parts O2/96.5 parts N2). It is filed as in vivo. The conditions noted are these: female mice, i.p., hypoxia 3.5 parts oxygen/96.5 parts nitrogen; for ED50: Mus musculus, ip, read-out: Test 1 ED 50% (dose which increases survival time of the animals by 50%), hypoxia. On the procedure:
1. Protection from acute cerebral hypoxia
Female mice (weight 22-28 g) were placed in a glass tube (diameter 6 cm) through which was passed a mixture of 3.5 parts of oxygen and 96.5 parts of nitrogen. Untreated control animals survived 138 sec. on average in a glass tube of this type. The dose of active substances which, after intraperitoneal administration thereof, increases the survival time of the animals by 50% was determined.

The nature of assay [2]: Protection from global cerebral ischemia (survival time of mice after MgCl2). It is filed as in vivo. As to conditions: female mice, i.p., before 0.1 ml of 80% strength MgCl2.6H2O solution; for ED50: Mus musculus, ip, read-out: Test 2 ED 50% (dose which increases survival time of the animals by 50%), global ischemia. On the procedure: 2. Protection from global cerebral ischemia
Female mice (weight 24-27 g) received the active substance intraperitoneally before administration of 0.1 ml of an 80% strength solution (g/l) of MgCl2.6H2 O. Untreated control animals survive 24 sec. on average after administration of MgCl2. The dose of active substances which increases the survival time of the animals by 50% compared with placebo-treated animals was determined.

In assay [3] the target is T1, calcium channel (Cavia porcellus, UniProt A0A286X7I0).
T1 construct: guinea-pig skeletal muscle membranes; from tissue; host or cells: guinea-pig skeletal muscle membranes
T1 sequence (A0A286X7I0 1-1867): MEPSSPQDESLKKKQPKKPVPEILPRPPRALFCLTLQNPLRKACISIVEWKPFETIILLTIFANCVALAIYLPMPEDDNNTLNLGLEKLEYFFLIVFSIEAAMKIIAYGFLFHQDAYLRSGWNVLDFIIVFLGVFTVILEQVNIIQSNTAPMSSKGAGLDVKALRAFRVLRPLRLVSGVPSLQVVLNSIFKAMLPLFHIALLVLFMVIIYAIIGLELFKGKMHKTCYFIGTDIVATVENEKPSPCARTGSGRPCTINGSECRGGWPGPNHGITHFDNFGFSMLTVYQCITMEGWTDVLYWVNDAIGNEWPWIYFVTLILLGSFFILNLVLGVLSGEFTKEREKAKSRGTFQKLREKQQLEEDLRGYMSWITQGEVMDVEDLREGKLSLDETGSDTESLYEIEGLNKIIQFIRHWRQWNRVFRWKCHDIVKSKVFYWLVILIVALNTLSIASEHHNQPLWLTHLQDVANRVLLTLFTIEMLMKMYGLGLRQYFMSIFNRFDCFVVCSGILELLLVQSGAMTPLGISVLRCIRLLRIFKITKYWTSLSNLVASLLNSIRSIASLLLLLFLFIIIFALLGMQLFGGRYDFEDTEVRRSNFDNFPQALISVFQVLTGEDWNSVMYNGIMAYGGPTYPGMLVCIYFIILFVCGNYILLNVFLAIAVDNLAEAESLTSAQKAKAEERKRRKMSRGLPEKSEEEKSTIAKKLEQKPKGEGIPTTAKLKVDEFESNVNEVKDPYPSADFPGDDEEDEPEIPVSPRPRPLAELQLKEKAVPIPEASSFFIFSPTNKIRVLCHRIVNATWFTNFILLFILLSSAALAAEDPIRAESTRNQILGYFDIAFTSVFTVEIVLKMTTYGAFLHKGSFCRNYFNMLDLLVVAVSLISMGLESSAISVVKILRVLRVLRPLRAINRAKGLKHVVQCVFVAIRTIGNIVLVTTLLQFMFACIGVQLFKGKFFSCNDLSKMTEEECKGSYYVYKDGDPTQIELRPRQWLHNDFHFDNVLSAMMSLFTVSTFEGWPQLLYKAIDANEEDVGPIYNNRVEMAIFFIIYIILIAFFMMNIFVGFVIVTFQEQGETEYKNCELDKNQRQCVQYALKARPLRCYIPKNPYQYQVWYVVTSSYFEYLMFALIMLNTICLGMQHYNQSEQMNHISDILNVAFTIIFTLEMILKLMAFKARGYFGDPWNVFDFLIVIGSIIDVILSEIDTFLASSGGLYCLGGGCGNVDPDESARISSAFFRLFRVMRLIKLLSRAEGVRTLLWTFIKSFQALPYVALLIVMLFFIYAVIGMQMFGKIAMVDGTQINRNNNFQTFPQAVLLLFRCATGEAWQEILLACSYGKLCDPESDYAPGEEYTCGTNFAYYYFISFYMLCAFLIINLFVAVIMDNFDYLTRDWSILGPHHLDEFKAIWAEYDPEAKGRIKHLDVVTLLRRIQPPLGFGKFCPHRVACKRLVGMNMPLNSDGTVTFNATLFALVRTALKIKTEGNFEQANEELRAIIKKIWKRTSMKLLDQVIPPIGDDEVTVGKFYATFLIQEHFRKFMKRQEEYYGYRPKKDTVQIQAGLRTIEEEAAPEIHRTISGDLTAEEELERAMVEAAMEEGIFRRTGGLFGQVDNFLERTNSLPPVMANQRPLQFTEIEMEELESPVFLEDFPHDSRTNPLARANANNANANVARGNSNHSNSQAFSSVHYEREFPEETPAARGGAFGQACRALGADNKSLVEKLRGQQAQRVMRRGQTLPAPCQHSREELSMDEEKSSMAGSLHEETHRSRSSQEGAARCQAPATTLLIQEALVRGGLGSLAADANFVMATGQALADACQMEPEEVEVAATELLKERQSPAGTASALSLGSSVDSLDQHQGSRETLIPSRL
In words: Affinity to the calcium channel: inhibition of specific (S)-3H-devapamil binding to guinea-pig skeletal muscle membranes. As to conditions: 1 nM (S)-3H-devapamil, pH 7.4, 20° C., 60 minutes, read-out: Test 3 Ki. On the procedure:
3. Affinity of the test substances to the calcium channel.
The affinity of the test substances to the calcium channel was determined by inhibition of the specific (S)-^3 H-devapamil binding to guinea-pig skeletal muscle membranes (FEBS Lett. 176, 371 (1984)). For this, the membranes were incubated with a fixed concentration of 1 nM (S)-^3 H-devapamil and increasing concentrations of test substance in 50 mM tris-HCl/0.1 mM phenylmethylsulfonyl fluoride, (pH 7.4) at 20° C. for 60 minutes. The non-specific binding was determined using 10^-6 M (S)-devapamil. The mixtures were then filtered through glass fiber filters, and the amount of (S)-^3 H-devapamil retained on the filter was determined by liquid scintillation measurement. The Ki values were determined by non-linear regression analysis.

pKi: −log10 of the molar value.

25 molecules from patent publication US5342839A, “2-hydroxy-3-phenoxy-propyl-substituted piperazines, their preparation and use” (BASF Aktiengesellschaft, priority 1988, dated 1994) can be followed below.

For the molecule `OC(COc1ccc(F)cc1)CN1CCN(CCCC(c2ccc(F)cc2)c2ccc(F)cc2)CC1` (single isomer, unassigned; (+)) [Example 30, (+)-1[4,4-bis(4-fluorophenyl)butyl]-4-[2-hydroxy-3(4-fluorophenoxy)propyl]piperazine], in assay [1], the “Test 1 ED 50% (dose which increases survival time of the animals by 50%), hypoxia” value was 4.0 mg/kg. Moreover, the ED50 in assay [2] worked out at 17 mg/kg. For the same molecule, the pKi in assay [3] is 8.00.
Consider `OC(COc1ccc(F)cc1)CN1CCN(CCC(c2ccccc2)c2ccccc2)CC1` (single isomer, unassigned; (+)) [Example 32], for which the “Test 1 ED 50% (dose which increases survival time of the animals by 50%), hypoxia” value in assay [1] was found to be 4.2 mg/kg. Also, the “Test 2 ED 50% (dose which increases survival time of the animals by 50%), global ischemia” value in assay [2] is given as 9.5 mg/kg. For the same molecule, in assay [3], the pKi was 6.60.
With `OC(COc1ccc(F)cc1)CN1CCN(CCCC(c2ccc(F)cc2)c2ccc(F)cc2)CC1` (single isomer, unassigned; (-)) [Example 29, (-)-1[4,4-bis(4-fluorophenyl)butyl]-4-[2-hydroxy-3(4-fluorophenoxy)propyl]piperazine], the “Test 1 ED 50% (dose which increases survival time of the animals by 50%), hypoxia” value in assay [1] stood at 1.6 mg/kg. Further, in assay [2], the “Test 2 ED 50% (dose which increases survival time of the animals by 50%), global ischemia” value amounted to 13 mg/kg. The pKi in assay [3] is 8.05.
On to `OC(COc1ccc(F)cc1)CN1CCN(CCC(c2ccccc2)c2ccccc2)CC1` (single isomer, unassigned; (-)) [Example 31], for which the ED50 turned out to be 4.1 mg/kg in assay [1] and 9.3 mg/kg in assay [2]. Also, the pKi in assay [3] is 6.83.
The corresponding values for `OC(COc1ccc(Cl)cc1)CN1CCN(CCCC(c2ccc(F)cc2)c2ccc(F)cc2)CC1` (centres unmarked) [Example 1, 1-[4,4-bis(4-Fluorophenyl)butyl]-4-[2-hydroxy-3(4-chlorophenoxy)propyl]piperazine] are 11 mg/kg, 27 mg/kg and 8.10.
Turning to `OC(COc1ccc(F)cc1)CN1CCN(CCCC(c2ccc(F)cc2)c2ccc(F)cc2)CC1` (centres unmarked) [Example 2, 1-[4,4-bis(4-fluorophenyl)butyl]-4-[2-hydroxy-3(4-fluorophenoxy)propyl]piperazine], the results for the ED50 in assay [1] and in assay [2] were 11 mg/kg and 20 mg/kg, respectively. The pKi in assay [3] was 8.04.
`OC(COc1ccccc1)CN1CCN(CCCC(c2ccc(F)cc2)c2ccc(F)cc2)CC1` (centres unmarked) [Example 3, 1-[4,4-bis(4-fluorophenyl)butyl]-4-[2-hydroxy-3-phenoxypropyl]piperazine]: the values for the ED50 in assay [1] and in assay [2] were 10 mg/kg and 13 mg/kg, respectively. Also, in assay [3], the pKi is 8.10.
As for `OC(COc1ccccc1)CN1CCN(CCCC(c2ccccc2)c2ccccc2)CC1` (centres unmarked) [Example 4, 1-[4,4-diphenylbutyl]-4-[2-hydroxy-3-phenoxypropyl]-piperazine], the figures for the ED50 in assay [1] and in assay [2] were 6.6 mg/kg and 8.6 mg/kg, respectively. Besides, the negative-log Ki (pKi) in assay [3] is 7.74.
Turning to `OC(COc1ccccc1)CN1CCN(CCC(c2ccccc2)c2ccccc2)CC1` (centres unmarked) [Example 7, 1-[3,3-diphenylpropyl]-4-[2-hydroxy-3-phenoxypropyl]piperazine], the ED50 in assay [1] worked out at 4.6 mg/kg; in assay [2], 10 mg/kg. In assay [3], the pKi was 6.55.
On to `OC(COc1ccc(Cl)cc1)CN1CCN(CCC(c2ccccc2)c2ccccc2)CC1` (centres unmarked) [Example 8, 1-[3,3-diphenylpropyl]-4-[2-hydroxy-3(4-chlorophenoxy)propyl]piperazine], for which the ED50 is 5 mg/kg in assay [1] and 13 mg/kg in assay [2]. The pKi in assay [3] was 6.80.
For `OC(COc1ccc(Cl)cc1)CN1CCN(CC(c2ccccc2)c2ccccc2)CC1` (centres unmarked) [Example 9, 1-[2,2-diphenylethyl]-4-[2-hydroxy-3-(4-chlorophenoxy)propyl]piperazine], the ED50 in assay [1] stood at 7.3 mg/kg; in assay [2], 12 mg/kg. The pKi in assay [3] is 7.52.
As to `OC(COc1cccc(C(F)(F)F)c1)CN1CCN(CCCC(c2ccc(F)cc2)c2ccc(F)cc2)CC1` (centres unmarked) [Example 11, 1-[4,4-bis(4-fluorophenyl)butyl]-4-[2-hydroxy-3(3-trifluoromethylphenoxy)propyl]piperazine], the figures for the ED50 in assay [1] and in assay [2] were 4.9 mg/kg and 46 mg/kg, respectively. The pKi in assay [3] was 8.10.
Turning to `OC(COc1ccc(Cl)c(Cl)c1)CN1CCN(CCCC(c2ccc(F)cc2)c2ccc(F)cc2)CC1` (centres unmarked) [Example 12, 1-[4,4-bis(4-fluorophenyl)butyl]-4-[2-hydroxy-3-(3,4-dichlorophenoxy)propyl]piperazine], the ED50 is 4.7 mg/kg in assay [1] and 45 mg/kg in assay [2]. Besides, the pKi in assay [3] was 7.80.
For `OC(COc1ccccc1Cl)CN1CCN(CCCC(c2ccc(F)cc2)c2ccc(F)cc2)CC1` (centres unmarked) [Example 13, 1-[4,4-bis(4-fluorophenyl)butyl]-4-[2-hydroxy-3-(c-chlorophenoxy)propyl]piperazine], the “Test 1 ED 50% (dose which increases survival time of the animals by 50%), hypoxia” value in assay [1] is given as 6.9 mg/kg. Besides, the “Test 2 ED 50% (dose which increases survival time of the animals by 50%), global ischemia” value in assay [2] worked out at 39 mg/kg. Moreover, the pKi in assay [3] was 8.00.
With `O=[N+]([O-])c1ccc(OCC(O)CN2CCN(CCCC(c3ccc(F)cc3)c3ccc(F)cc3)CC2)cc1` (centres unmarked) [Example 16, 1-[4,4-bis(4-fluorophenyl)butyl]-4-[2-hydroxy-3-(4-nitrophenoxy)propyl]piperazine], the results for the ED50 in assay [1] and in assay [2] were 5.5 mg/kg and 38 mg/kg, respectively. The pKi in assay [3] was 7.96.
For `N#Cc1ccccc1OCC(O)CN1CCN(CCCC(c2ccc(F)cc2)c2ccc(F)cc2)CC1` (centres unmarked) [Example 17, 1-[4,4-bis(4-fluorophenyl)butyl]-4-[2-hydroxy-3-(2-cyanophenoxy)propyl]piperazine], the ED50 in assay [1] was found to be 16 mg/kg; in assay [2] it was 27 mg/kg. Moreover, in assay [3], the pKi was 8.00.
In the case of `OC(COc1ccc(F)cc1)CN1CCN(CCCC(c2ccccc2)c2ccccc2)CC1` (centres unmarked) [Example 22, 1-[4,4-diphenylbutyl]-4-[2-hydroxy-3-(4-fluorophenoxy)propyl]piperazine], the results for the ED50 in assay [1] and in assay [2] were 6 mg/kg and 8.8 mg/kg, respectively. Further, in assay [3], the negative-log Ki (pKi) was 7.82.
The like results for `OC(COc1ccc(Cl)c(Cl)c1)CN1CCN(CCCC(c2ccccc2)c2ccccc2)CC1` (centres unmarked) [Example 23, 1-[4,4-diphenylbutyl]-4-[2-hydroxy-3-(3,4-dichlorophenoxy)propyl]piperazine] were, in that order, 8.6 mg/kg, 41 mg/kg and 7.66.
On to `Cc1ccc(C(CCCN2CCN(CC(O)COc3ccc(F)cc3)CC2)c2ccc(C)cc2)cc1` (centres unmarked) [Example 24, 1-[4,4-bis(4-methylphenyl)butyl]-4-[2-hydroxy-3-(4-fluorophenoxy)propyl]piperazine], for which the ED50 came to 23 mg/kg in assay [1] and 40 mg/kg in assay [2]. In addition, the pKi in assay [3] is 7.92.
Consider `OC(COc1ccc(F)cc1)CN1CCN(CCCC(c2cccc(F)c2)c2cccc(F)c2)CC1` (centres unmarked) [Example 27, 1-[4,4-bis(3-fluorophenyl)butyl]-4-[2-hydroxy-3-(4-fluorophenoxy)propyl]piperazine], for which the ED50 in assay [1] was determined as 14 mg/kg; in assay [2] it was 29 mg/kg. Further, the negative-log Ki (pKi) in assay [3] is 7.66.
Consider `OC(COc1ccc(F)cc1)CN1CCCN(CCCC(c2ccc(F)cc2)c2ccc(F)cc2)CC1` (centres unmarked) [Example 33, 1-[4,4-bis(4-fluorophenyl)butyl]-4-(2-hydroxy-3(4-fluorophenoxy)propyl]homopiperazine], for which the results for the ED50 in assay [1] and in assay [2] were 4.8 mg/kg and 31 mg/kg, respectively. The pKi in assay [3] is 7.89.
The like results for `OC(CSc1ccc(F)cc1)CN1CCN(CCCC(c2ccc(F)cc2)c2ccc(F)cc2)CC1` (centres unmarked) [Example 34, 1-[4,4-bis(4-fluorophenyl)butyl]-4-[2-hydroxy-3-(4-fluoro-thiophenoxy)propyl]piperazine] were, in that order, 9 mg/kg, 28 mg/kg and 8.05.
The corresponding values for `OC(CSc1ccccc1)CN1CCN(CCC(c2ccccc2)c2ccccc2)CC1` (centres unmarked) [Example 35] are 8.7 mg/kg, 14 mg/kg and 6.80.
As to `Fc1ccc(C(c2ccc(F)cc2)N2CCN(C/C=C/c3ccccc3)CC2)cc1` [flunarizine, reference compound], the values for the ED50 in assay [1] and in assay [2] were over 100 mg/kg and 26.5 mg/kg, respectively.
In the case of `Cc1cccc(C)c1NC(=O)CN1CCN(CCCC(c2ccc(F)cc2)c2ccc(F)cc2)CC1` [lidoflazine, reference compound], the ED50 in assay [1] was 10 mg/kg; in assay [2] it was over 46 mg/kg. Besides, the pKi in assay [3] was 7.70.

As a reminder, the pKi is the negative decadic logarithm of the Ki, by convention in mol/L.
